The text below walks through data of US6864249B2, “Piperidine and azetidine thrombin inhibitors” (LG Life Sciences, Ltd., priority 1998, dated 2005).

Structures are written as SMILES. Structures can show the parent of a compound that is named as a salt.

This test addresses T1, Thrombin prepared from human plasma (Homo sapiens, UniProt P00734).
T1 construct: Thrombin used in this test was prepared from human plasma; from tissue; host or cells: human plasma
In words: In vitro enzyme assay for thrombin inhibition constants (Chromozym TH substrate, Dixon plot). In kind it is biochemical. Conditions: pH 7.8, room temperature. On the procedure: In vitro Enzyme Assays for Determining Inhibition Constants
The activity of thrombin was measured spectrophotometrically using tosyl-Gly-Pro-Arg-p-nitroanilide acetate (Chromozym TH, Boehringer Mannheim) as a substrate. […] Each compound was dissolved in DMSO to make a 1 mM stock solution and dilutions were made thereof with assay buffer (0.1 M Tris HCl, 0.15 M NaCl, 0.1% polyethylene glycol 8000, pH 7.8). Different concentrations of inhibitor were mixed with […] of thrombin in 0.8 mL of the buffer. The mixture was incubated for 10 min at room temperature before adding 0.2 mL of the substrate to a final concentration of 20 μM. […] A graph for the reciprocal value of initial velocity to the inhibitor concentration was derived from progress curves by fitting the data using a linear regression program.
A word on the Ki: it is the equilibrium dissociation constant of an inhibitor or competing ligand from its target. A low value points to tighter binding. `NCc1ccc(CNC(=O)[C@@H]2CCCN2C(=O)[C@H](NS(N)(=O)=O)C(c2ccccc2)c2ccccc2)s1` [Example 2, N-aminosulfonyl-D-diphenylalanyl-L-prolyl-[(5-aminomethyl-2-thienyl)methyl]amide.HCl] yielded an inhibition constant Ki of 4.7 nM. The compound `CS(=O)(=O)N[C@@H](C(=O)N1CCC[C@H]1C(=O)NCc1ccc(/C(N)=N/N)s1)C(c1ccccc1)c1ccccc1` [Example 4, N-methylsulfonyl-D-diphenylalanyl-L-prolyl-[(5-amidrazono-2-thienyl)methyl]amide.TFA] registered an inhibitory constant (Ki) of 0.53 nM.

For `N=C(N)c1ccc(CNC(=O)[C@@H]2CCCN2C(=O)[C@H](NS(=O)(=O)Cc2ccccc2)C(c2ccccc2)c2ccccc2)s1` [Example 6, N-benzylsulfonyl-D-diphenylalanyl-L-prolyl-[(5-amidino-2-thienyl)methyl]amide.TFA], the Ki is 0.021 nM. Then `CC(C)(C)OC(=O)N[C@@H](C(=O)N1CCC[C@H]1C(=O)NCc1ccc(C(=N)N)s1)C(c1ccccc1)c1ccccc1` [Example 7, N-t-butoxycarbonyl-D-diphenylalanyl-L-prolyl-[(5-amidino-2-thienyl)methyl]amide.TFA], with 0.007 nM. Then `N=C(N)c1ccc(CNC(=O)[C@@H]2CCCN2C(=O)[C@@H](Cc2ccc(Cl)c(Cl)c2)NS(N)(=O)=O)s1` [Example 9, N-aminosulfonyl-D-3,4-dichlorophenylalanyl-L-prolyl-[(5-amidino-2-thienyl)methyl]amide.TFA], with 0.065 nM; and `COC(=O)N[C@@H](C(=O)N1CCC[C@H]1C(=O)NCc1ccc(C(=N)N)s1)C(C1CCCCC1)C1CCCCC1` [Example 10, N-methoxycarbonyl-D-dicyclohexylalanyl-L-prolyl-[(5-amidino-2-thienyl)methyl]amide.TFA], with 0.052 nM; and `CS(=O)(=O)N[C@@H](C(=O)N1CCC[C@H]1C(=O)NCc1cc(C(=N)N)cs1)C(c1ccccc1)c1ccccc1` [Example 12, N-methylsulfonyl-D-diphenylalanyl-L-prolyl-[(4-amidino-2-thienyl)methyl]amide.TFA], with 0.04 nM. In turn, `CS(=O)(=O)N[C@@H](C(=O)N1CCC[C@H]1C(=O)NCc1cc(CN)cs1)C(c1ccccc1)c1ccccc1` [Example 13, N-methylsulfonyl-D-diphenylalanyl-L-prolyl-[(4-aminomethyl-2-thienyl)methyl]amide.HCl] returned a Ki of 0.073 nM. This Ki is about 1.8-fold higher than that of the compound before. Then `CS(=O)(=O)N[C@@H](C(=O)N1CCC[C@H]1C(=O)NCc1csc(C(=N)N)c1)C(c1ccccc1)c1ccccc1` [Example 16, N-methylsulfonyl-D-diphenylalanyl-L-prolyl-[(5-amidino-3-thienyl)methyl]amide.TFA], with 0.045 nM; and `CS(=O)(=O)N[C@@H](C(=O)N1CCC[C@H]1C(=O)NCc1csc(C(=N)NN)c1)C(c1ccccc1)c1ccccc1` [Example 17, N-methylsulfonyl-D-diphenylalanyl-L-prolyl-[(5-amidrazono-3-thienyl)methyl]amide.TFA], with 0.41 nM; and `CS(=O)(=O)N[C@@H](C(=O)N1CCC[C@H]1C(=O)NCc1csc(CN)c1)C(c1ccccc1)c1ccccc1` [Example 18, N-methylsulfonyl-D-diphenylalanyl-L-prolyl-[(5-aminomethyl-3-thienyl)methyl]amide.TFA], with 6.21 nM. In turn, `N=C(N)c1ccc(CNC(=O)[C@@H]2CCCN2C(=O)[C@H](NS(=O)(=O)NC2CCCCC2)C(c2ccccc2)c2ccccc2)s1` [Example 20, N-cyclohexylsulfamoyl-D-diphenylalanyl-L-prolyl-[(5-amidino-2-thienyl)methyl]amide.TFA] yielded a Ki of 0.011 nM.

As to `C=CCOC(=O)N[C@@H](C(=O)N1CCC[C@H]1C(=O)NCc1ccc(C(=N)N)s1)C(c1ccccc1)c1ccccc1` [Example 21, N-allyloxycarbonyl-D-diphenylalanyl-L-prolyl-[(5-amidino-2-thienyl)methyl]amide.TFA], affinity was put at a Ki of 0.017 nM.
